Data set [1] can be described thus: Phase I dose escalation study of ombrabulin with platinum salts and taxanes every 3 weeks: DLT, MAD, RD, TEAE. It counts as in vivo, patients. On the procedure:
Dose Limiting Toxicity (DLT) at cycle 1.
Two groups of patients will be treated: one with docetaxel-cisplatin doublet (group 1) and the second with paclitaxel-carboplatin doublet (group 2), both in combination with ombrabulin.
The combination will be started with the following schedule (schedule A) for group 1:
Day 1: ombrabulin as a 30 minutes i.v. infusion immediately followed by 120 minutes i.v. infusion of cisplatin, and
Day 2: docetaxel administered as a 60 minutes i.v. infusion 24 hours apart ombrabulin infusion end and for the first 4 dose levels (I, II, III, IV).
Cohorts of 3 or 6 patients will receive escalating doses of ombrabulin (15.5, 20 and 25 mg/m^2) with a fixed dose of cisplatin at 75 mg/m^2 on Day 1, followed by docetaxel on Day 2, given either at 60 mg/m^2 for the ombrabulin doses of 15.5 and 20 mg/m^2 or at 75 mg/m^2 for the ombrabulin doses of 20 and 25 mg/m^2.
Taking into consideration the recommended dose of the combination ombrabulin and cisplatin administered the same day (25 mg/m^2 and 75 mg/m^2 respectively) every 3 weeks, after dose level IV, even if MAD not reached at this dose level, dose escalation of ombrabulin will be stopped and the combination will be administered with the following schedule (schedule B) in the 2 groups:
Day 1: ombrabulin as a 30 minutes i.v. infusion, and
Group 1: docetaxel administered as a 60 minutes i.v. infusion followed by cisplatin as a 120 minutes i.v. infusion, 24 hours apart ombrabulin infusion end.
Group 2: paclitaxel administered as a 180 minutes i.v. infusion followed by carboplatin as a 30 minutes i.v. infusion, 24 hours apart ombrabulin infusion end.
Cohorts of 3 or 6 patients will be screened and treated at each dose level. When the first three patients of a cohort have completed the first cycle, i.e. should have received at least one treatment course and should have been observed for acute toxicity for at least a 3-week follow-up period (or shorter period provided that a DLT has been observed), dose escalation strategy will be as follows: […]

The next data set is described as follows: clinical. Here is the method:
Blood samples for pharmacokinetic analysis were obtained from all patients on Day 1, 2 and 3 at Cycle 1.
A series of 2-mL blood samples were collected in heparinized (lithium heparinate) tubes as follows: • immediately prior to the end of infusion; • at 5, 10, 25, 45 and 60 minutes post infusion; • at 2, 4, 6, 8, 10 and 24 hours post infusion (i.e a total of 24 mL of blood).

For data set [2] the following is noted: cited from earlier work.
Setting [3] is: ombrabulin 15.5 mg/m^2, 3 patients, cycle 1, mean (CV).
Where [4] appears, read: ombrabulin 20 mg/m^2, 26 patients, cycle 1, mean (CV).
The mark [5] stands for this setting: ombrabulin 25 mg/m^2, 12 patients, cycle 1, mean (CV).
[6] abbreviates: ombrabulin 30 mg/m^2, 6 patients, cycle 1, mean (CV).
Where [7] appears, read: ombrabulin 35 mg/m^2, 5 patients, cycle 1, mean (CV).
Where [8] appears, read: ombrabulin, Overall (15.5-35 mg/m^2), 52 patients, cycle 1, mean (CV).
[9] abbreviates: ombrabulin, Overall (15.5-35 mg/m^2), 52 patients, cycle 1, mean (CV), listed as Ombrabulin.

As usually defined, the AUC is concentration integrated over time. The low end stands for less exposure, the high end for more exposure. One may read the AUC(0-t) as exposure summed from dosing to a finite time, without extrapolation to infinity. The Cmax is the peak of the concentration-time curve. As a reminder, the Tmax is the time at which the peak concentration occurs. A word on the half-life: it is the time needed for the level to fall by half in the phase considered. In the case of `COc1ccc(/C=C\c2cc(OC)c(OC)c(OC)c2)cc1NC(=O)[C@@H](N)CO` [ombrabulin, (Z)-N-[2-methoxy-5-[2-(3,4,5-trimethoxyphenyl)vinyl]phenyl]-L-serinamide], the maximum administered dose in data set [1] (Cohort II: Ob d1, C75/D75 d2, 19 pts) is listed as 35 mg/m^2; in data set [1] (Cohort III: Ob d1, CbAUC5/P175 d2, 18 pts), 35 mg/m^2; in data set [1] (Cohort IV: Ob d1, CbAUC6/P200 d2, 19 pts), 35 mg/m^2. Further, the AUC in “clinical” (human, in vivo, 15.5 mg/m2) was determined as 276 ng·h/mL; in “clinical” (human, in vivo, 20 mg/m2) it was 353 ng·h/mL; in “clinical” (human, in vivo, 25 mg/m2), 383 ng·h/mL; in “clinical” (human, in vivo, 30 mg/m2), 510 ng·h/mL; in the data set “clinical” (human, in vivo, 35 mg/m2) it was 493 ng·h/mL. The AUC(0-t) was 274 ng·h/mL in the data set “clinical” (human, in vivo, 15.5 mg/m2); 351 ng·h/mL in the data set “clinical” (human, in vivo, 20 mg/m2); 381 ng·h/mL in the data set “clinical” (human, in vivo, 25 mg/m2); 508 ng·h/mL in “clinical” (human, in vivo, 30 mg/m2); 491 ng·h/mL in “clinical” (human, in vivo, 35 mg/m2). Further, the Cmax in “clinical” (human, in vivo, 15.5 mg/m2) came to 712 ng/mL; in “clinical” (human, in vivo, 20 mg/m2), 861 ng/mL; in “clinical” (human, in vivo, 25 mg/m2) it was 973 ng/mL; in the data set “clinical” (human, in vivo, 30 mg/m2), 1170 ng/mL; in the data set “clinical” (human, in vivo, 35 mg/m2), 1270 ng/mL. Besides, the Tmax came to 28.8 min in the data set “clinical” (human, in vivo, 15.5 mg/m2); 28.8 min in the data set “clinical” (human, in vivo, 20 mg/m2); 29.4 min in the data set “clinical” (human, in vivo, 25 mg/m2); 32.4 min in “clinical” (human, in vivo, 30 mg/m2); 30 min in the data set “clinical” (human, in vivo, 35 mg/m2). This molecule displayed a half-life in the data set “clinical” (human, in vivo, t1/2Z (terminal elimination half-life), ombrabulin, Overall (15.5-35 mg/m^2), 52 patients, cycle 1, mean (CV)) of 17 min. Also, the “conversion to its active metabolite” value in the data set “clinical” (in patients after i.v. infusion) is listed as “rapidly converted”. Moreover, the Vss in “clinical” (setting [3]) is reported as 18.2 (32) L/m^2; in the data set “clinical” (setting [4]), 22.0 (57) L/m^2; in “clinical” (setting [5]) it was 27.2 (76) L/m^2; in “clinical” (setting [6]), 24.3 (37) L/m^2; in the data set “clinical” (setting [7]) it was 32.8 (78) L/m^2; in “clinical” (setting [8]), 25.0 (33) L/m^2. The molecule also displayed a Vss in the data set “clinical” (setting [9]) of 25.0 L/m^2. Also, the t1/2Z in the data set “clinical” (setting [3]) is recorded as 20.9 (76) min; in “clinical” (setting [4]), 17.7 (50) min; in the data set “clinical” (setting [5]) it was 15.3 (37) min; in the data set “clinical” (setting [6]), 18.5 (65) min; in the data set “clinical” (setting [7]), 14.3 (28) min. For the same molecule, the CL is listed as 64.6 (42) L/h/m^2 in the data set “clinical” (setting [4]); 80.1 (49) L/h/m^2 in the data set “clinical” (setting [5]); 63.4 (33) L/h/m^2 in “clinical” (setting [6]); 95.7 (63) L/h/m^2 in “clinical” (setting [7]); 72.9 (23) L/h/m^2 in “clinical” (setting [8]); 72.9 L/h/m^2 in “clinical” (setting [9]). In addition, the “t1/2Z (terminal elimination half-life)” value in the data set “clinical” (setting [8]) is recorded as 17.3 (15) min. Further, in data set [2] (ombrabulin monotherapy), the “recommended dose in monotherapy” value is recorded as 50 mg/m^2. Besides, in data set [2] (with cisplatin 75 mg/m^2 administered the same day, every 3 weeks), the “recommended dose of ombrabulin in combination with cisplatin” value was 25 mg/m^2. In data set [2] (with docetaxel 75 mg/m^2, on-going phase I trial), the “recommended dose of ombrabulin in bi-therapy with docetaxel” value is 35 mg/m^2.

As to `COc1ccc(/C=C\c2cc(OC)c(OC)c(OC)c2)cc1N` [ombrabulin metabolite, (Z)-1-(3-amino-4-methoxyphenyl)-2-(3,4,5-trimethoxyphenyl)ethene], in the data set “clinical” (human, in vivo), the “Metabolite exposure relative to ombrabulin” value was “about 2 fold”.

(Values after patent publication US20130122113A1, “ANTITUMORAL COMBINATION COMPRISING OMBRABULIN, A TAXANE DERIVATIVE AND A PLATINUM DERIVATIVE” (SANOFI, priority 2010, published 2013).)
